Test results from patent US20180354980A1, “NOVEL TRITERPENE-GLYCOSIDES AS SWEETENERS OR SWEETENER ENHANCER” (Analyticon Discovery GmbH, priority 2015, published 2018).

Assays:
panel of 4 panelists = assay: Organoleptic test of the compounds against sucrose and Pterocaryoside A; assay type: in vivo; parameters: key to sweetness compared to sucrose: 3: sweeter than the control solution; 2: sweetness comparable with the control solution; 1: less sweet than the control solution but still sweet; details: for sweetness compared to sucrose: 0.4 mg/ml (400 ppm) in non-carbonated mineral water vs sucrose 20 mg/ml, panel of 4 panelists; for comment (bitter off taste): 0.4 mg/ml (400 ppm) in non-carbonated mineral water, compared with Pterocaryoside A
Procedure: (§1) The isolated pure compounds were dissolved in non-carbonated mineral water (“Fonsana Quelle”) in a concentration of 0.4 mg/ml (400 ppm). The sweet taste of each sample was compared by a panel of 4 panelists with a solution of sucrose in a concentration of 20 mg/ml.

panel = details: ammonium salt; panel rating; cited from earlier work
[1] = in vivo; cited from earlier work
[2] = Solubility in non-carbonated mineral water at the test concentration; assay type: physicochemical; details: 0.4 mg/ml in non-carbonated mineral water
Procedure: as §1

Molecule	sweetness compared to sucrose (panel of 4 panelists)	comment (bitter off taste) (panel of 4 panelists)	also measured
C=C(C)C1CCC2(C)C(CC(O[C@@H]3OC[C@H](O)[C@H](O)[C@H]3O)C3C(C(C)=O)CCC32C)C1(C)CCC(=O)O (stereo partly drawn) [Compound E, 3-(3-acetyl-6,9a,9b-trimethyl-7-(prop-1-en-2-yl)-4-((2S,3R,4S,5S)-3,4,5-trihydroxytetrahydro-2H-pyran-2-yloxy)dodecahydro-1H-cyclopenta[a]naphthalen-6-yl)propanoic acid]	3	less bitter than Pterocaryoside A	–
Pterocaryoside B	–	–	off-taste (panel): persistent, mildly bitter, off-taste; onset of sweetness (panel): instantaneous; sweetness relative to sucrose (panel): about 100 times sweeter than 2% sucrose
C[C@H](CC[C@@H](O[C@@H]1O[C@H](CO[C@@H]2O[C@H](CO)[C@@H](O)[C@H](O)[C@H]2O)[C@@H](O)[C@H](O)[C@H]1O[C@@H]1O[C@H](CO)[C@@H](O)[C@H](O)[C@H]1O)C(C)(C)O)[C@H]1CC[C@@]2(C)[C@@H]3CC=C4[C@@H](CC[C@H](O[C@@H]5O[C@H](CO)[C@@H](O[C@@H]6O[C@H](CO)[C@@H](O)[C@H](O)[C@H]6O)[C@H](O)[C@H]5O)C4(C)C)[C@]3(C)[C@H](O)C[C@]12C [iso-mogroside V]	–	–	aftertaste [1]: certain bitter aftertaste
C=C(C)C(O)C(O)CC(C)(O)C1CCC2(C)C1C(O[C@@H]1O[C@H](C)[C@@H](O)[C@H](O)[C@H]1O)CC1C(C)(CCC(=O)O)C(C(=C)C)CCC12C (stereo partly drawn) [Compound C, 3-(6,9a,9b-trimethyl-7-(prop-1-en-2-yl)-3-(2,4,5-trihydroxy-6-methylhept-6-en-2-yl)-4-((2R,3R,4S,5S,6R)-3,4,5-trihydroxy-6-methyltetrahydro-2H-pyran-2-yloxy)dodecahydro-1H-cyclopenta[a]naphthalen-6-yl)propanoic acid]	3	less bitter than Pterocaryoside A	–
C=C(C)C1CCC2(C)C(CC(O[C@@H]3OC[C@H](O)[C@H](O)[C@H]3O)C3C(C4(C)CCC(C(C)(C)O)O4)CCC32C)C1(C)CCC(=O)O (stereo partly drawn) [Compound A, 3-(3-(5-(2-hydroxypropan-2-yl)-2-methyltetrahydrofuran-2-yl)-6,9a,9b-trimethyl-7-(prop-1-en-2-yl)-4-((2S,3R,4S,5S)-3,4,5-trihydroxytetrahydro-2H-pyran-2-yloxy)dodecahydro-1H-cyclopenta[a]naphthalen-6-yl)propanoic acid]	3	less bitter than Pterocaryoside A	–
Pterocaryoside A	–	strong bitter and slightly hot off-taste	solubility at the desired concentration [2]: not completely soluble; sweetness compared with the sucrose solution (in words) (panel of 4 panelists; solution at desired 0.4 mg/ml, not completely dissolved, vs sucrose 20 mg/ml): comparable to the sweetness of the sucrose solution; off-taste (panel): persistent, mildly bitter, off-taste; onset of sweetness (panel): instantaneous; sweetness relative to sucrose (panel): about 50 times sweeter than 2% sucrose
C=C(C)C(O)CCC(C)(O)C1CCC2(C)C1C(OC1OC(COC(C)=O)C(O)C1O)CC1C(C)(CCC(=O)O)C(C(=C)C)CCC12C (stereo not drawn) [Compound B, 3-(4-(5-(acetoxymethyl)-3,4-dihydroxytetrahydrofuran-2-yloxy)-3-(2,5-dihydroxy-6-methylhept-6-en-2-yl)-6,9a,9b-trimethyl-7-(prop-1-en-2-yl)dodeca hydro-1H-cyclopenta[a]naphthalen-6-yl)propanoic acid]	1	slightly bitter off taste comparable to	–
C[C@H](CC[C@@H](O[C@@H]1O[C@H](CO[C@@H]2O[C@H](CO)[C@@H](O)[C@H](O)[C@H]2O)[C@@H](O)[C@H](O)[C@H]1O[C@@H]1O[C@H](CO)[C@@H](O)[C@H](O)[C@H]1O)C(C)(C)O)[C@H]1CC[C@@]2(C)[C@@H]3CC=C4[C@@H](CC[C@H](O[C@@H]5O[C@H](CO[C@@H]6O[C@H](CO)[C@@H](O)[C@H](O)[C@H]6O)[C@@H](O)[C@H](O)[C@H]5O)C4(C)C)[C@]3(C)[C@H](O)C[C@]12C [mogroside V]	–	–	aftertaste [1]: certain bitter aftertaste
C=C(C)C(O)C(O)CC(C)(O)C1CCC2(C)C1C(O[C@@H]1OCC(O)[C@H](O)[C@H]1O)CC1C(C)(CCC(=O)O)C(C(=C)C)CCC12C (stereo in doubt) [Compound D, 3-(6,9a,9b-trimethyl-7-(prop-1-en-2-yl)-3-(2,4,5-trihydroxy-6-methylhept-6-en-2-yl)-4-((2S,3R,4S,5S)-3,4,5-trihydroxytetrahydro-2H-pyran-2-yloxy)dodecahydro-1H-cyclopenta[a]naphthalen-6-yl)propanoic acid]	3	less bitter than Pterocaryoside A	–
